From patent US20200181284A1, “EPIGENETIC INHIBITORS FOR SENSITIZING HEMATOLOGIC OR OTHER MALIGNANCIES TO GLUCOCORTICOID THERAPY” (UNIVERSITY OF SOUTHERN CALIFORNIA, priority 2017, published 2020)

Key:
NALM6 cells [1] = test: Cell death assay (Presto Blue, 72 h) with dex plus inhibitor; type: cell-based, human
Description: Cells were plated in CellStar low evaporation lid 96-well round-bottom plate at a density of 100,000 cells/ml. Directly after plating, cells were treated in triplicate with serial dilutions of dexamethasone or vehicle control (0.1% ethanol). After 72 h, cell viability of each well was analyzed in duplicate using the Presto Blue Assay Reagent (Life Technologies). Fluorescence was measured and data were analyzed with Prism6 software.
(§1) FIGS. 40A, 40B, 40C, 40D-1, 40D-2, 40D-3, and 40D-4 show Aurora kinase B inhibitors sensitizing NALM6 cells to GC-induced cell death. As shown in FIGS. 40A and 40B, NALM6 cells were treated with the indicated dex concentration in addition to 0.75 μM ZM447439 (FIG. 40A), 16 nM AZD2811 (FIG. 40B), or equivalent volume of vehicle DMSO for 72 h, and cell survival was measured by a fluorescence metabolic assay. In each condition, the value measured with dex was normalized to the fluorescence value measured with ethanol. Percentage of survival is shown as the mean±SEM of 4 independent experiments and p-values for individual dex concentrations were calculated using a paired t-test. *p≤0.05, **p≤0.01, * * *p≤0.001. F-test comparing the two curves: p≤0.001. Insets show the EC50s that were calculated as the concentration at which half the cells remained alive, compare to vehicle controls. Error bars depict the SEM of 4 independent experiments and p-values were calculated to compare AURKB inhibitor treatment to DMSO using a paired t-test ** p≤0.01, * * *p≤0.001. […] The indicated proteins were then examined by immunoblot. As shown in FIGS. 40D-1, 40D-2, 40D-3, and 40D-4, NALM6 cells pre-treated with AZD2811 (16 nM) or DMSO for 24 h, were then treated for 8 h with 100 nM dex or ethanol. mRNA levels for the indicated GR target genes were measured by RT-qPCR and normalized to β-actin mRNA levels.
FIGS. 48A, 48B, 48C, 48D, 48E, and 48F show the effect of AURKB inhibitors on EHMT2 phosphorylation and dex-induced cell death. […] In each condition, the value measured with dex was normalized to the fluorescence value measured with ethanol. Percentage of survival is shown as the mean±SEM of 4 independent experiments and p-values for individual dex concentrations were calculated using a paired t-test. *p≤0.05, **p≤0.01, * * *p≤0.001. F-test comparing the two curves: p≤0.001. EC50s were calculated as the concentration at which half the cells remained alive, compare to vehicle controls. Error bars depict the SEM of 4 independent experiments and p-value was calculated to compare ZM treatment to DMSO using a paired t-test **p≤0.01, * * *p≤0.001. […] EC50s were calculated as the concentration at which half the cells remained alive, compare to vehicle controls. Error bars depict the SEM of 4 independent experiments and p-value was calculated to compare alisertib treatment to DMSO using a paired t-test. […] (E-F) RCH-ACV cells were treated with the indicated dex concentration in addition to 0.75 μM ZM447439 (FIG. 48E), 16 nM AZD2811 (FIG. 48F), or DMSO for 72 h, and cell survival was measured by a fluorescence metabolic assay. In each condition, the value measured with dex was normalized to the fluorescence value measured with ethanol. Percentage of survival is shown as the mean±SEM of 5 individual experiments and the p-value for each dex concentration was calculated using a paired t-test. *p≤0.05, **p≤0.01, * * *p≤0.001. F-test comparing the two curves: p≤0.001.
FIGS. 55A, 55B, and 55C show JIB-04 enhances GC-induced death of B-ALL cell line NALM6.

EHMT2 phosphorylation = test: Phosphorylation of EHMT2 in NALM-6 cells (pan ph-T immunoprecipitation, EHMT2 immunoblot); type: cell-based, human; settings: NALM-6, 16 nM AZD2811, 24 h
Description: (§2) Cells were treated as indicated, and cell extracts were prepared in RIPA buffer ([…] Tris-HCl, pH 8, 150 mM NaCL, 1 mM EDTA, 1% NP-40, and 0.25% deoxycholate) supplemented with protease inhibitor tablets (Roche Molecular Biochemicals) and phosphatase inhibitors (1 mM NaF, 1 mM Na3VO4, and 1 mM β-glycerophosphate). Protein extracts were incubated overnight at 4° C. with shaking with 1 μg of antibodies against EHMT2 (Sigma G6919), EHMT1 (Millipore 09-078), or pan phospho-threonine (Millipore AB1607). Protein A/G plus agarose beads (Santa Cruz sc-2003) were added, and the mixture was incubated 2 h at 4° C. The immunoprecipitates were separated on SDS-PAGE. […]
FIGS. 48A, 48B, 48C, 48D, 48E, and 48F show the effect of AURKB inhibitors on EHMT2 phosphorylation and dex-induced cell death. […] In each condition, the value measured with dex was normalized to the fluorescence value measured with ethanol. Percentage of survival is shown as the mean±SEM of 4 independent experiments and p-values for individual dex concentrations were calculated using a paired t-test. *p≤0.05, **p≤0.01, * * *p≤0.001. […] EC50s were calculated as the concentration at which half the cells remained alive, compare to vehicle controls. Error bars depict the SEM of 4 independent experiments and p-value was calculated to compare ZM treatment to DMSO using a paired t-test **p≤0.01, * * *p≤0.001. […]

NALM6 cells [2] = test: Immunoblot of apoptosis markers (cleaved caspase 3, caspase 7, PARP1) in NALM6 cells; type: cell-based, human; settings: 16 nM AZD2811 pretreatment 24 h, then 100 nM dex 24 h
Description: as §2
FIGS. 40A, 40B, 40C, 40D-1, 40D-2, 40D-3, and 40D-4 show Aurora kinase B inhibitors sensitizing NALM6 cells to GC-induced cell death. As shown in FIGS. 40A and 40B, NALM6 cells were treated with the indicated dex concentration in addition to 0.75 μM ZM447439 (FIG. 40A), 16 nM AZD2811 (FIG. 40B), or equivalent volume of vehicle DMSO for 72 h, and cell survival was measured by a fluorescence metabolic assay. In each condition, the value measured with dex was normalized to the fluorescence value measured with ethanol. Percentage of survival is shown as the mean±SEM of 4 independent experiments and p-values for individual dex concentrations were calculated using a paired t-test. *p≤0.05, **p≤0.01, * * *p≤0.001. […]

[3] = test system: GR target genes in NALM6 cells; test: RT-qPCR of GR target genes in NALM6 cells; type: cell-based, human; settings: NALM6, 16 nM AZD2811 24 h, then 100 nM dex 8 h
Description: RNA was isolated using TRIzol (Invitrogen) according to the manufacturer's instructions. Reverse transcription reaction was performed using Superscript III (ThermoFisher) according to specifications with 1 μg of total RNA as template. Quantitative PCR amplification of the resulting cDNA was performed on a Roche LightCycler 480 using SYBR green I master mix (Roche). mRNA levels were normalized to the level of b-actin mRNA.
as §1
FIGS. 54A, 54B, and 54C highlight the GR Target genes that require G9a and GLP as coactivators.

[4] = test system: LAX7R and LAX56 primary human B-ALL cells; test: Survival of primary B-ALL cells co-cultured with OP-9 feeder cells (Annexin V/7AAD); type: cell-based
Description: Primary ALL cells (LAX7R and LAX56) were established from mouse xenografts derived from patient samples (Adam et al., 2017; Hsieh et al., 2013). They were cultured in 24 well tissue-culture plates on irradiated OP-9 cells with growth medium containing MEM-α with 20% heat-inactivated fetal bovine serum, and 100 IU/ml penicillin and 100 μg/ml streptomycin. On day 3 and day 5 after the addition of drugs, ALL cells were collected, and apoptosis was assessed using PE Annexin V Apoptosis Detection Kit with 7-AAD.
As shown FIGS. 41A-1, 41A-2, 41B-1, and 41B-2, LAX7R (FIGS. 41A-1 and 41A-2) or LAX56 (FIGS. 41B-1 and 41B-2) primary human B-ALL cells were co-cultured with OP-9 feeder cells for 3 days (left) or 5 days (right) in the presence of the indicated drugs, and cell survival was determined by staining with Annexin/7AAD. p-value was calculated using a paired t-test, and different symbols were used to indicate p-values between different groups.+indicates statistical significance (+p≤0.05, ++p≤0.01 and + + + p≤0.001) between Dexamethasone or AZD2811 treated group and DMSO control group; # indicates statistical significance (#p≤0.05, ##p≤0.01 and # # # p≤0.001) between AZD2811+Dexamethasone combination group and AZD2811 group; * indicates statistical difference (*p≤0.05, **p≤0.01, * * *p≤0.001) between combination group and respective Dexamethasone treated groups. Values shown are mean and SD for 3 biological replicates, which are representative of 3 independent experiments.

G9a methylation = G9a methylation level in NALM6 cells treated with KDM inhibitors; type: cell-based, human
From the text: There are two distinct families of KDM with distinct catalytic mechanisms (FIG. 50B). We tested one inhibitor for each family: OG-L002 inhibits the two members of the LSD family of KDM, and JIB-04 inhibits several members of the large JmjC family of KDM, including members of the KDM2, KDM3, and KDM4 subfamilies. We propose that there is an equilibrium between the enzymes that methylate G9a and GLP (in this case they methylate themselves) and the KDM enzymes to maintain a moderate level of G9a/GLP methylation (FIGS. 50C-1, 50C-2), and that inhibition of the KDMs that normally demethylate G9a and GLP (currently unknown) will increase the level of G9a/GLP methylation and thereby enhance the coactivator activity of G9a/GLP, the GC activation of the cell death genes, and GC-induced cell death in B-ALL cells. Thus, as a first step to identify the G9a/GLP-specific demethylases, we treated NALM6 cells with the two inhibitors named above. OG-L002 had no effect on the level of G9a methylation, but JIB-04 increased the level of G9a methylation in NALM6 cells (FIG. 50D).

CCN(CCO)CCCOc1ccc2c(Nc3cc(CC(=O)Nc4cccc(F)c4)[nH]n3)ncnc2c1 [AZD2811]
dex-induced cell death (NALM6 cells [1]; NALM6, 16 nM AZD2811, 72 h): enhanced
phosphorylation of EHMT2 (EHMT2 phosphorylation): decreased
cleavage of apoptotic markers in dex-treated NALM6 (NALM6 cells [2]): increased
dex-induced expression of dex-effector genes that utilize EHMT2, EHMT1 and CBX3 [3]: enhanced
cell survival compared with the vehicle-treated control ([4]; 16 nM AZD2811 alone, 3 or 5 days): 70-80%
cell survival ([4]; 16 nM AZD2811 in combination with 0.1 nM dex, 3 or 5 days): 10-40%
dex sensitivity of the two dex-resistant primary B-ALL lines ([4]; 16 nM AZD2811 with dex): dramatically enhanced

N[C@H]1C[C@@H]1c1ccc(-c2cccc(O)c2)cc1 [OG-L002, 3-[4-[(1R,2S)-2-aminocyclopropyl]phenyl]phenol]
GC-induced death of NALM6 cells (NALM6 cells [1]; 72 hours with various dex concentrations plus KDM inhibitor): no effect
level of G9a methylation (G9a methylation): no effect
